Source: patent US20230168255A1, “UNBLENDING OF TRANSCRIPTIONAL CONDENSATES IN HUMAN REPEAT EXPANSION DISEASE” (Max-Planck-Gesellschaft zur Förderung der Wissenschaften …, priority 2020, published 2023)

Columns and labels:
[1] = biological target: T1, Hoxd13 +7A IDR-Med1 IDR co-condensates (Homo sapiens, UniProt P35453, DUP65-71); test: in vitro droplet assay, compound treatment of Hoxd13 IDR-Med1 IDR co-condensates; format: biochemical; settings: purified Hoxd13 +7A IDR-mCherry mixed with MED1 IDR-GFP; FIG. 3G-J, FIG. 8
T1 construct: His tag (from pET45b(+); purified on a His column); made in house; host or cells: E. coli BL21(DE3)
T1 sequence (P35453 with tags, fused parts or gaps DUP65-71): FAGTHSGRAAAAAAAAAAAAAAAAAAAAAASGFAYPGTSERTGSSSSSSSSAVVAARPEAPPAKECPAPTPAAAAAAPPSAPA
Procedure: (§1) For image analysis, droplets were first automatically thresholded in either the mEGFP or mCherry channel using Zen Blue (Version 3.0), and then filtered by size, pixel intensity, and pixel deviation. Mean fluorescence intensities, area, and diameter of these primary regions were measured on both channels. For quantification and data visualization (FIG. 1J, 2H, 3B-E, 3H-J, 6F, 6H, 60, 6Q), raw values for diameter, mean intensity, or area were plotted as indicated in figure legends using R-Studio and the Directlabels package.
(§2) For in vitro droplet formation, recombinant mCherry or mEGFP fusion proteins were measured for concentration, and then diluted or mixed to suitable final concentrations in storage buffer. For microscopy, these solutions were further diluted 1:2 in either 20% or 10% PEG-8000 in deionized water (w/v). 10 μL of this suspension was pipetted onto chambered coverslips, and immediately imaged using a LSM880 confocal microscope equipped with a 63×1.40 oil DIC objective and AiryScan detector. All images were acquired from within the solution interface, and performed before droplets settled onto the bottom of the coverslip, as described in (Sabari et al., 2018). For droplet assays using preformed GFP-Med1 condensates (FIG. 3E-F), GFPMed1 droplets were allowed to form for 30 minutes at room temperature in the presence of 10% PEG-8000, before proceeding with co-condensation assays. For compound treatments of cocondensates (FIG. 3G-J), small molecules [ATP (Jena Bioscience, NU-1010), Mitoxantrone dihydrochloride (Sigma M6545), (±)-α-lipoic acid (Sigma 62320), and lipoamide, (Medchemexpress HY-B1142)] were directly diluted into droplet mixtures with or without vehicle (DMSO, Sigma D2650) to the desired final concentrations.

[2] = tested on: Hoxd13 +7A IDR-Med1 IDR co-condensates; test: as above; format: biochemical; settings: summary statement; TFs containing disease-mutations
Procedure: as §1, §2

[3] = tested on: Hoxd13 puncta in limb bud cells; test: 1,6-hexanediol treatment of limb bud cells, Hoxd13 immunofluorescence; format: cell-based, mouse; settings: 6% for 1 min; limb bud cells expressing +7A Hoxd13 (spdh) versus wt
Procedure: 1,6-hexanediol treatment: Isolated limb bud cells attached to fibronectin coated glass coverslips were treated with 6% or 0% hexanediol (Sigma, 240117) in 1 mL cell culture media for 1 minute at 37° C. After treatment, cells were washed with 1 mL of PBS, and immediately fixed in 4% paraformaldehyde in PBS for 10 min. Fixed cells were washed and then stored at 4° C. until processing for immunofluorescence and microscopy.
Isolated limb bud cells, Kelly cells, and SH-SY5Y cells attached to coated glass coverslips were fixed in 4% paraformaldehyde (PFA) (Sigma-Aldrich, P6148) in PBS for 10 min and stored at 4° C. in PBS or processed immediately. Cells were permeabilized in 0.1% Triton X-100 (Thermo Scientific, 85111) in PBS for 10 min at RT. […]
Hoxd13 puncta detected in fixed cell immunofluorescence (FIG. 4C-D) were analyzed using a similar workflow described above. Nuclear regions were automatically detected in the Zen Blue (Zeiss) software package using the DAPI counterstain signal. Puncta were segmented on morphology, and then filtered based on fluorescence intensity and circularity. […] Values for nuclear area, Hoxd13 puncta area, Hoxd13 puncta mean fluorescence intensity, and Hoxd13 puncta count were measured for 120 wild type cells, 143 1-6 HD treated wild type cells, 63 spdh cells, and 62 1-6 HD treated spdh cells.

reblending of co-condensates (ratio of GFP and mCherry fluorescence in HOXD13 IDR-mCherry containing droplets) [1]	Compound	composition of heterotypic condensates formed by Cluster 1 TFs with transcriptional co-activators (co-activator and TF content) [2]	sensitivity of Hoxd13 puncta to 1,6-HD [3]
capable of reblending	Nc1ncnc2c1ncn2[C@@H]1O[C@H](COP(=O)(O)OP(=O)(O)NP(=O)(O)O)[C@@H](O)[C@H]1O [APPNP, adenosine-5′-[(β,γ)-imido]triphosphate]	effective	–
failed to reblend	O=C(O)CCCCC1CCSS1 (racemic) [lipoic acid, (±)-α-lipoic acid]	–	–
failed to reblend	NC(=O)CCCCC1CCSS1 (stereo not shown) [lipoamide]	–	–
–	OCCCCCCO [1,6-HD, 1,6-hexanediol]	–	considerably reduced sensitivity

Compound	reblending of co-condensates (ratio of GFP and mCherry fluorescence in HOXD13 IDR-mCherry containing droplets) [1]	composition of heterotypic condensates formed by Cluster 1 TFs with transcriptional co-activators (co-activator and TF content) [2]	sensitivity of Hoxd13 puncta to 1,6-HD [3]
adenosine tri-phosphate [ATP]	reblended Hoxd13 +7A IDR-Med1 IDR co-condensates in a dose dependent manner	revert the compositional alteration	–
